Source: the CheMixHub ionic liquid set
± gives the uncertainty stated by the source.

Experiment: xn = mol fraction of the nth substance listed

CCCC[n+]1ccn(C)c1.F[B-](F)(F)F + O
electrical conductivity (308.15 K, 100 kPa, x1 = 7.98e-05): 0.0658 ± 0.0011 S/m | viscosity (308.15 K, 100 kPa, x1 = 0.0003603): 0.751 ± 0.06 mPa·s | viscosity (308.15 K, 100 kPa, x1 = 0.0003729): 0.751 ± 0.061 mPa·s | viscosity (308.15 K, 100 kPa, x1 = 0.0007203): 0.789 ± 0.06 mPa·s | viscosity (308.15 K, 100 kPa, x1 = 0.0007257): 0.789 ± 0.061 mPa·s | viscosity (308.15 K, 100 kPa, x1 = 0.00108): 0.83 ± 0.061 mPa·s | viscosity (308.15 K, 100 kPa, x1 = 0.0011): 0.83 ± 0.061 mPa·s | viscosity (308.15 K, 100.3 kPa, x1 = 0.0005439): 0.7296 ± 0.0089 mPa·s | viscosity (308.15 K, 100.3 kPa, x1 = 0.0009901): 0.7358 ± 0.009 mPa·s | viscosity (308.15 K, 100.3 kPa, x1 = 0.00501): 0.7841 ± 0.0092 mPa·s | viscosity (308.15 K, 100.3 kPa, x1 = 0.006973): 0.8048 ± 0.0093 mPa·s | viscosity (308.15 K, 100.3 kPa, x1 = 0.009052): 0.835 ± 0.0094 mPa·s | viscosity (308.15 K, 100.3 kPa, x1 = 0.01199): 0.8681 ± 0.0096 mPa·s | viscosity (308.15 K, 100.3 kPa, x1 = 0.01499): 0.9047 ± 0.0098 mPa·s | viscosity (308.15 K, 100.3 kPa, x1 = 0.017): 0.9282 ± 0.0099 mPa·s | viscosity (308.15 K, 101 kPa, x2 = 0.1002): 38.1 ± 5 mPa·s | viscosity (308.15 K, 101 kPa, x2 = 0.209): 28.4 ± 3.8 mPa·s | electrical conductivity (308.15 K, 101 kPa, x2 = 0.7002): 4.24 ± 0.25 S/m | electrical conductivity (308.2 K, 101 kPa, frequency 6e-05 MHz, x2 = 0.2): 1.3 ± 0.013 S/m | electrical conductivity (308.2 K, 101 kPa, frequency 6e-05 MHz, x2 = 0.4): 2.04 ± 0.02 S/m | electrical conductivity (308.2 K, 101 kPa, frequency 6e-05 MHz, x2 = 0.6): 3.28 ± 0.033 S/m | electrical conductivity (308.2 K, 101 kPa, frequency 6e-05 MHz, x2 = 0.8): 5.28 ± 0.053 S/m | viscosity (313 K, 100 kPa, x1 = 0.6023): 13.87 ± 0.3 mPa·s | viscosity (313.15 K, 100 kPa, x1 = 0.0003603): 0.693 ± 0.06 mPa·s | viscosity (313.15 K, 100 kPa, x1 = 0.0003729): 0.693 ± 0.061 mPa·s | viscosity (313.15 K, 100 kPa, x1 = 0.0007203): 0.736 ± 0.06 mPa·s | viscosity (313.15 K, 100 kPa, x1 = 0.0007257): 0.736 ± 0.061 mPa·s | viscosity (313.15 K, 100 kPa, x1 = 0.00108): 0.779 ± 0.061 mPa·s | viscosity (313.15 K, 100 kPa, x1 = 0.0011): 0.779 ± 0.061 mPa·s | viscosity (313.15 K, 100.3 kPa, x1 = 0.0005439): 0.6614 ± 0.0086 mPa·s | viscosity (313.15 K, 100.3 kPa, x1 = 0.0009901): 0.6672 ± 0.0087 mPa·s | viscosity (313.15 K, 100.3 kPa, x1 = 0.00501): 0.7105 ± 0.0089 mPa·s | viscosity (313.15 K, 100.3 kPa, x1 = 0.006973): 0.7302 ± 0.0089 mPa·s | viscosity (313.15 K, 100.3 kPa, x1 = 0.009052): 0.7571 ± 0.0091 mPa·s | viscosity (313.15 K, 100.3 kPa, x1 = 0.01199): 0.7861 ± 0.0092 mPa·s | viscosity (313.15 K, 100.3 kPa, x1 = 0.01499): 0.8177 ± 0.0094 mPa·s | viscosity (313.15 K, 100.3 kPa, x1 = 0.017): 0.8403 ± 0.0095 mPa·s | viscosity (313.15 K, 101 kPa, x2 = 0): 46.5 ± 6 mPa·s | electrical conductivity (313.15 K, 101 kPa, x2 = 0.1014): 0.991 ± 0.059 S/m | viscosity (313.15 K, 101 kPa, x2 = 0.1135): 35.01 ± 0.84 mPa·s | viscosity (313.15 K, 101 kPa, x2 = 0.5014): 9 ± 1.4 mPa·s | viscosity (313.15 K, 101 kPa, x2 = 0.6004): 7.4 ± 1.2 mPa·s | electrical conductivity (313.15 K, 101 kPa, x2 = 0.8493): 6.99 ± 0.42 S/m | electrical conductivity (313.15 K, 101 kPa, x2 = 0.9744): 5.57 ± 0.34 S/m | electrical conductivity (313.2 K, 101 kPa, frequency 6e-05 MHz, x2 = 0.2): 1.45 ± 0.015 S/m | electrical conductivity (313.2 K, 101 kPa, frequency 6e-05 MHz, x2 = 0.4): 2.27 ± 0.023 S/m | electrical conductivity (313.2 K, 101 kPa, frequency 6e-05 MHz, x2 = 0.6): 3.69 ± 0.037 S/m | electrical conductivity (313.2 K, 101 kPa, frequency 6e-05 MHz, x2 = 0.8): 5.9 ± 0.059 S/m | viscosity (318.15 K, 100 kPa, x1 = 0.0003603): 0.638 ± 0.06 mPa·s | viscosity (318.15 K, 100 kPa, x1 = 0.0003729): 0.638 ± 0.061 mPa·s | viscosity (318.15 K, 100 kPa, x1 = 0.0007203): 0.681 ± 0.06 mPa·s | viscosity (318.15 K, 100 kPa, x1 = 0.0007257): 0.681 ± 0.061 mPa·s | viscosity (318.15 K, 100 kPa, x1 = 0.00108): 0.725 ± 0.06 mPa·s | viscosity (318.15 K, 100 kPa, x1 = 0.0011): 0.725 ± 0.061 mPa·s | viscosity (318.15 K, 100.3 kPa, x1 = 0.0005439): 0.6041 ± 0.0084 mPa·s | viscosity (318.15 K, 100.3 kPa, x1 = 0.0009901): 0.6099 ± 0.0084 mPa·s | viscosity (318.15 K, 100.3 kPa, x1 = 0.003018): 0.6311 ± 0.0085 mPa·s | viscosity (318.15 K, 100.3 kPa, x1 = 0.00501): 0.6489 ± 0.0086 mPa·s | viscosity (318.15 K, 100.3 kPa, x1 = 0.006973): 0.6654 ± 0.0087 mPa·s | viscosity (318.15 K, 100.3 kPa, x1 = 0.009052): 0.69 ± 0.0088 mPa·s | viscosity (318.15 K, 100.3 kPa, x1 = 0.01199): 0.7155 ± 0.0089 mPa·s | viscosity (318.15 K, 100.3 kPa, x1 = 0.01499): 0.7441 ± 0.009 mPa·s | viscosity (318.15 K, 100.3 kPa, x1 = 0.017): 0.7642 ± 0.0091 mPa·s | electrical conductivity (318.15 K, 101 kPa, x2 = 0.3058): 2 ± 0.12 S/m | viscosity (318.15 K, 101 kPa, x2 = 0.6004): 6.4 ± 1 mPa·s | electrical conductivity (318.2 K, 101 kPa, frequency 6e-05 MHz, x2 = 0.2): 1.59 ± 0.016 S/m | electrical conductivity (318.2 K, 101 kPa, frequency 6e-05 MHz, x2 = 0.4): 2.53 ± 0.025 S/m | electrical conductivity (318.2 K, 101 kPa, frequency 6e-05 MHz, x2 = 0.6): 4.13 ± 0.041 S/m | electrical conductivity (318.2 K, 101 kPa, frequency 6e-05 MHz, x2 = 0.8): 6.55 ± 0.066 S/m | viscosity (323.15 K, 101 kPa, x2 = 0.06153): 29.13 ± 0.56 mPa·s | viscosity (323.15 K, 101 kPa, x2 = 0.209): 16.7 ± 2.3 mPa·s | viscosity (323.15 K, 101 kPa, x2 = 0.4001): 8.4 ± 1.3 mPa·s | electrical conductivity (323.15 K, 101 kPa, x2 = 0.8493): 7.98 ± 0.48 S/m | electrical conductivity (323.15 K, 101 kPa, x2 = 0.9496): 8.04 ± 0.48 S/m | electrical conductivity (323.15 K, 101 kPa, x2 = 0.9744): 6.74 ± 0.41 S/m | electrical conductivity (323.2 K, 101 kPa, frequency 6e-05 MHz, x2 = 0.2): 1.75 ± 0.018 S/m | electrical conductivity (323.2 K, 101 kPa, frequency 6e-05 MHz, x2 = 0.4): 2.78 ± 0.028 S/m | electrical conductivity (323.2 K, 101 kPa, frequency 6e-05 MHz, x2 = 0.6): 4.57 ± 0.046 S/m | electrical conductivity (323.2 K, 101 kPa, frequency 6e-05 MHz, x2 = 0.8): 7.22 ± 0.072 S/m | viscosity (333.15 K, 101 kPa, x2 = 0): 24.86 ± 0.4 mPa·s | viscosity (333.15 K, 101 kPa, x2 = 0.1135): 18.67 ± 0.4 mPa·s | electrical conductivity (333.2 K, 101 kPa, frequency 6e-05 MHz, x2 = 0.2): 2.1 ± 0.021 S/m | electrical conductivity (333.2 K, 101 kPa, frequency 6e-05 MHz, x2 = 0.4): 3.36 ± 0.034 S/m | electrical conductivity (333.2 K, 101 kPa, frequency 6e-05 MHz, x2 = 0.6): 5.31 ± 0.053 S/m | electrical conductivity (333.2 K, 101 kPa, frequency 6e-05 MHz, x2 = 0.8): 8.54 ± 0.085 S/m | viscosity (343.15 K, 101 kPa, x2 = 0.2984): 6.5 ± 1 mPa·s | viscosity (343.15 K, 101 kPa, x2 = 0.6004): 3.75 ± 0.66 mPa·s | viscosity (343.15 K, 101 kPa, x2 = 0.7): 2.73 ± 0.49 mPa·s | viscosity (343.15 K, 101 kPa, x2 = 0.8999): 1.07 ± 0.21 mPa·s | electrical conductivity (343.2 K, 101 kPa, frequency 6e-05 MHz, x2 = 0.2): 2.49 ± 0.025 S/m | electrical conductivity (343.2 K, 101 kPa, frequency 6e-05 MHz, x2 = 0.4): 3.87 ± 0.039 S/m | electrical conductivity (343.2 K, 101 kPa, frequency 6e-05 MHz, x2 = 0.6): 6.27 ± 0.063 S/m | electrical conductivity (343.2 K, 101 kPa, frequency 6e-05 MHz, x2 = 0.8): 9.89 ± 0.099 S/m | viscosity (353.15 K, 101 kPa, x2 = 0.1002): 8.6 ± 1.3 mPa·s | viscosity (353.15 K, 101 kPa, x2 = 0.3977): 5.98 ± 0.29 mPa·s | viscosity (353.15 K, 101 kPa, x2 = 0.6004): 3.19 ± 0.57 mPa·s | electrical conductivity (353.2 K, 101 kPa, frequency 6e-05 MHz, x2 = 0.2): 2.94 ± 0.029 S/m | electrical conductivity (353.2 K, 101 kPa, frequency 6e-05 MHz, x2 = 0.4): 4.56 ± 0.046 S/m | electrical conductivity (353.2 K, 101 kPa, frequency 6e-05 MHz, x2 = 0.6): 7.44 ± 0.074 S/m | electrical conductivity (353.2 K, 101 kPa, frequency 6e-05 MHz, x2 = 0.8): 11.5 ± 0.12 S/m | viscosity (363.15 K, 101 kPa, x2 = 0.03402): 11 ± 0.18 mPa·s | viscosity (363.15 K, 101 kPa, x2 = 0.06153): 10.4 ± 0.18 mPa·s | viscosity (363.15 K, 101 kPa, x2 = 0.2802): 6.65 ± 0.19 mPa·s | viscosity (373.15 K, 101 kPa, x2 = 0): 9.55 ± 0.15 mPa·s | viscosity (373.15 K, 101 kPa, x2 = 0.06153): 8.6 ± 0.15 mPa·s
